≈ marks a conversion by molar mass, not a printed value. Where two headings read alike, the source gives them in different places.
Key:
T. b. brucei (TREU 667) [1] = settings: cited from earlier work
MDCK-MDR1 cell monolayer = settings: dog, MDCK-MDR1, 1 h, 3 µM
T. b. brucei 427 [2] = assay: T. b. brucei 427 growth inhibition (Scynexis); format: cell-based, Trypanosoma brucei brucei; settings: for Selectivity Index: L929 vs T. b. brucei; for IC50: Trypanosoma brucei, growth inhibition of T. b. brucei 427, mean ± SD
L929 mouse fibroblasts = assay: Cytotoxicity toward L929 mouse fibroblasts (Scynexis); format: cell-based
in vitro [3] = settings: dog, MDCK-MDR1, Permeability Papp
[4] = Human liver microsomal stability; format: in vitro ADME; settings: pooled human liver microsomes
Trypanosoma cruzi = assay: T. cruzi growth inhibition (University of Antwerp); format: cell-based; settings: mean of 2 to 5 determinations
T. b. rhodesiense = T. b. rhodesiense growth inhibition (University of Antwerp); format: cell-based, Trypanosoma brucei rhodesiense; settings: for IC50: mean of 2 to 5 determinations, read-out: IC50 T. b. rhod
[5] = system: human lung fibroblasts (MRC-5 cells); assay: Cytotoxicity toward MRC-5 cells (University of Antwerp); format: cell-based
T. b. brucei (TREU 667) [6] = assay: CNS (stage 2, chronic) HAT infection mouse model; format: in vivo, T. b. brucei; female Swiss Webster mice
Experimental: Therefore, 24 was examined in a stage 1 HAT mouse model.[14] Briefly, dosing was orally once daily for four days, starting 24 h postinfection, and parasitemia was assessed weekly via tail vein blood smears (see the Supporting Information). Excellent activity was observed (Table 4), with 24 providing complete cures (i.e. parasite free blood smears after >30 days) to all mice at doses as low as 5 mg/kg, similar to the control drug pentamidine (given i.p. at 2 mg/kg), whereas the vehicle only mice died on day 7. […]
Mouse Model for Chronic HAT Inf ection. Compound 24 was tested for in vi vo efficac y against chronic HAT infection caused b y T. b. brucei (TREU 667 strain) at the Haskin s Laboratories, Pace Universit y. […]
suspension formulation (0.8% CMC, 0.1% SDS in water) to groups of 8 or 10infected f emal e Swiss Webster mice, starting 21 d postinfection, according to a report ed method. 5 Animals remaining parasite free for more than 180 da ys beyond the end of the treatment period were […]

[7] = Mouse liver microsomal stability; format: in vitro ADME; settings: CD-1 mouse liver microsomes
Leishmania infantum = assay: L. infantum growth inhibition (University of Antwerp); format: cell-based; settings: mean of 2 to 5 determinations
T. b. brucei 427 [8] = assay: T. b. brucei growth inhibition (University of Antwerp); format: cell-based, Trypanosoma brucei brucei; settings: for IC50: T. b. brucei 427, mean of 2 to 5 determinations, read-out: IC50 T. b. bruc
[9] = Kinetic solubility in water or 0.1 M HCl (ACSRC); format: physicochemical; settings: read-out: aqueous solubility
T. b. brucei (EATRO 110) = assay: Acute (stage 1) HAT infection mouse model; format: in vivo, T. b. brucei; female Swiss Webster mice
Experimental: Therefore, 24 was examined in a stage 1 HAT mouse model.[14] Briefly, dosing was orally once daily for four days, starting 24 h postinfection, and parasitemia was assessed weekly via tail vein blood smears (see the Supporting Information). Excellent activity was observed (Table 4), with 24 providing complete cures (i.e. parasite free blood smears after >30 days) to all mice at doses as low as 5 mg/kg, similar to the control drug pentamidine (given i.p. at 2 mg/kg), whereas the vehicle only mice died on day 7. […] Here, oral dosing of 24 (at 12.5 to 50 mg/kg once daily for seven days from day 21 postinfection) led to significant increases in survival times in comparison to untreated controls (66–70 days vs 31 days; Table 5), although cure rates were inadequate (0–20%). […]
Mouse Model f or Acu te HAT Inf ection. Compound 24 was tested for in vivo effi cac y against acute HAT infection caused b y T. b. brucei (EATRO 110 strain) at the Haskins Laboratories, Pace Universit y. […] Infected animals or th ose showing si gns of infectionwer e euthanized.Untreated infected contr ol animals died after 5-7 days; mice remaining parasite free for more than 30 da ys beyond the end of the tr eatment period w er e con sidered cur ed. […]

in vitro [10] = settings: dog, MDCK-MDR1
[11] = Trypanosoma brucei, RHODESIENSE
[12] = Homo sapiens, MRC5, cytotoxicity toward human lung fibroblasts
[13] = 12.5 mg/kg orally once daily for 7 d from day 21 postinfection
[14] = 25 mg/kg orally once daily for 7 d from day 21 postinfection
[15] = 50 mg/kg orally once daily for 7 d from day 21 postinfection
[16] = 1.25 mg/kg orally once daily for 4 days
[17] = 2.5 mg/kg orally once daily for 4 days
[18] = 5 mg/kg orally once daily for 4 days
[19] = 12.5 mg/kg orally once daily for 4 days
[20] = 25 mg/kg orally once daily for 4 days
[21] = 50 mg/kg orally once daily for 4 days

CC1(C)OB(O)c2cc(NC(=O)c3ccc(F)cc3C(F)(F)F)ccc21 [Compound 5]
cure rate (T. b. brucei (TREU 667) [1]; same CNS model, 25 mg/kg once daily for 7 days): 100%

O=[N+]([O-])c1cn2c(n1)OC[C@@H](OCCCc1ccc(-c3ccc(Oc4ccc(C(F)(F)F)cc4)cc3)cc1)C2 [Compound 13]
Permeability Papp (MDCK-MDR1 cell monolayer): <0.8 nm/s | Selectivity Index (T. b. brucei 427 [2]): >43 | IC50 (T. b. brucei 427 [2]): 0.23 ± 0.04 µg/mL (≈ 0.426 µM) | IC50 (L929 mouse fibroblasts): > 10 µg/mL | Papp at 1 h, 3 µM (in vitro [3]): < 0.08 ×10⁻⁶ cm/s

O=[N+]([O-])c1cn2c(n1)OCC(COc1ccc(-c3ccc(C(F)(F)F)cc3)nc1)C2 (centres unmarked) [Compound 14]
Permeability Papp (MDCK-MDR1 cell monolayer): 117 nm/s | absolute AQ (MDCK-MDR1 cell monolayer): ≥ 0.3 | Selectivity Index (T. b. brucei 427 [2]): >36 | IC50 (T. b. brucei 427 [2]): 0.28 ± 0.11 µg/mL (≈ 0.666 µM) | IC50 (L929 mouse fibroblasts): > 10 µg/mL | Papp at 1 h, 3 µM (in vitro [3]): < 15 ×10⁻⁶ cm/s

O=[N+]([O-])c1cn2c(n1)[S@+]([O-])C[C@@H](OCc1ccc(OC(F)(F)F)cc1)C2 [Compound 24]
remaining at 1 h [4]: 82% | IC50 (Trypanosoma cruzi; Trypanosoma cruzi): 1.4 µM | Selectivity Index (T. b. brucei 427 [2]): > 143 | potency relative to (6R) enantiomer 26 (fold more potent) (T. b. brucei 427 [2]; T. b. brucei): more than 70 fold | potency relative to cis isomer 25 (fold more potent) (T. b. brucei 427 [2]; T. b. brucei): 40 fold | IC50 (T. b. brucei 427 [2]): 0.07 ± 0.005 µg/mL (≈ 0.179 µM) | IC50 (T. b. rhodesiense; [11]): 130 nM | IC50 (L929 mouse fibroblasts): > 10 µg/mL | IC50 [5, 12]: 50 µM | Cured (T. b. brucei (TREU 667) [6]; [13]): 0% | Cured/Total (T. b. brucei (TREU 667) [6]; [13]): 0/8 | Mean relapse time (T. b. brucei (TREU 667) [6]; [13]): 45 days | Cured (T. b. brucei (TREU 667) [6]; [14]): 20% | Cured/Total (T. b. brucei (TREU 667) [6]; [14]): 2/10 | Mean relapse time (T. b. brucei (TREU 667) [6]; [14]): 70 days | Cured (T. b. brucei (TREU 667) [6]; [15]): 0% | Cured/Total (T. b. brucei (TREU 667) [6]; [15]): 0/10 | Mean relapse time (T. b. brucei (TREU 667) [6]; [15]): 66 days | cure rates (T. b. brucei (TREU 667) [6]; 12.5 to 50 mg/kg orally once daily for seven days from day 21): 0–20% | remaining at 1 h [7]: 96% | IC50 (Leishmania infantum; Leishmania infantum): 10 µM | IC50 (T. b. brucei 427 [8]; Trypanosoma brucei): 0.14 µM | solubility at 15 min ([9]; water): 106 µg/mL (≈ 271 µM) | Cured (T. b. brucei (EATRO 110); [16]): 0% | Cured/Total (T. b. brucei (EATRO 110); [16]): 0/4 | Mean survival (T. b. brucei (EATRO 110); [16]): 7.5 days | Cured (T. b. brucei (EATRO 110); [17]): 25% | Cured/Total (T. b. brucei (EATRO 110); [17]): 1/4 | Mean survival (T. b. brucei (EATRO 110); [17]): 13 days | Cured (T. b. brucei (EATRO 110); [18]): 100% | Cured/Total (T. b. brucei (EATRO 110); [18]): 4/4 | Mean survival (T. b. brucei (EATRO 110); [18]): >30 days | Cured (T. b. brucei (EATRO 110); [19]): 100% | Cured/Total (T. b. brucei (EATRO 110); [19]): 5/5 | Mean survival (T. b. brucei (EATRO 110); [19]): >30 days | Cured (T. b. brucei (EATRO 110); [20]): 100% | Cured/Total (T. b. brucei (EATRO 110); [20]): 5/5 | Mean survival (T. b. brucei (EATRO 110); [20]): >30 days | Cured (T. b. brucei (EATRO 110); [21]): 100% | Cured/Total (T. b. brucei (EATRO 110); [21]): 5/5 | Mean survival (T. b. brucei (EATRO 110); [21]): >30 days | lowest dose providing complete cures to all mice (T. b. brucei (EATRO 110); orally once daily for four days): 5 mg/kg | efficacy relative to results described for fexinidazole (4) (fold superior) (T. b. brucei (EATRO 110); stage 1 HAT mouse model): ~20 fold

O=[N+]([O-])c1cn2c(n1)[S@@+]([O-])C[C@@H](OCc1ccc(OC(F)(F)F)cc1)C2 [Compound 25]
remaining at 1 h [4]: 93% | IC50 (Trypanosoma cruzi; Trypanosoma cruzi): 13 µM | IC50 (T. b. brucei 427 [2]): 2.8 ± 0.4 µg/mL (≈ 7.16 µM) | IC50 (T. b. rhodesiense; [11]): 1900 nM | IC50 (L929 mouse fibroblasts): > 10 µg/mL | IC50 [5, 12]: > 64 µM | remaining at 1 h [7]: 93% | IC50 (Leishmania infantum; Leishmania infantum): > 64 µM | IC50 (T. b. brucei 427 [8]; Trypanosoma brucei): 5.6 µM

O=[N+]([O-])c1cn2c(n1)[S@@+]([O-])C[C@H](OCc1ccc(OC(F)(F)F)cc1)C2 [Compound 26]
remaining at 1 h [4]: 91% | IC50 (Trypanosoma cruzi; Trypanosoma cruzi): 6.5 µM | IC50 (T. b. brucei 427 [2]): > 5 µg/mL | IC50 (T. b. rhodesiense; [11]): 7300 nM | IC50 (L929 mouse fibroblasts): > 10 µg/mL | IC50 [5, 12]: > 64 µM | remaining at 1 h [7]: 26% | IC50 (Leishmania infantum; Leishmania infantum): 41 µM | IC50 (T. b. brucei 427 [8]; Trypanosoma brucei): 34 µM

O=[N+]([O-])c1cn2c(n1)[S@+]([O-])C[C@H](OCc1ccc(OC(F)(F)F)cc1)C2 [Compound 27]
remaining at 1 h [4]: 88% | IC50 (Trypanosoma cruzi; Trypanosoma cruzi): 13 µM | IC50 (T. b. brucei 427 [2]): > 5 µg/mL | IC50 (T. b. rhodesiense; [11]): 4300 nM | IC50 (L929 mouse fibroblasts): > 10 µg/mL | IC50 [5, 12]: > 64 µM | remaining at 1 h [7]: 89% | IC50 (Leishmania infantum; Leishmania infantum): 48 µM | IC50 (T. b. brucei 427 [8]; Trypanosoma brucei): 16 µM

O=[N+]([O-])c1cn2c(n1)[S+]([O-])CC(OCc1ccc(-c3ccc(OC(F)(F)F)cc3)cn1)C2 (centres unmarked) [Compound 35, 2-Nitro-6-({5-[4-(trifluoromethoxy)phenyl]pyridin-2-yl}methoxy)-6,7-dihydro-5H-imidazo[2,1-b][1,3]thiazine 8-oxide]
remaining at 1 h [4]: 78% | IC50 (Trypanosoma cruzi): 0.067 µM | potency against T. b. rhodesiense relative to 12 (fold higher) (T. b. rhodesiense): 11 fold | IC50 (T. b. rhodesiense): 23 nM | selectivity index (MRC-5 IC50 / HAT IC50) [5]: > 500 times | selectivity index relative to 12 (fold better) [5]: 2.4 fold | IC50 ([5]; cytotoxicity toward human lung fibroblasts): 16 µM | remaining at 1 h [7]: 72% | IC50 (Leishmania infantum): 0.41 µM | potency against T. b. brucei relative to 12 (fold greater) (T. b. brucei 427 [8]): 9 fold | IC50 (T. b. brucei 427 [8]): 0.03 µM | Papp A→B at 150 min, 2 µM (in vitro [10]): 11.7 ×10⁻⁶ cm/s | Papp B→A at 150 min, 2 µM (in vitro [10]): 18.2 ×10⁻⁶ cm/s | solubility at 15 min ([9]; 0.1 M HCl, pH 1): 1260 µg/mL (≈ 2690 µM) | solubility at 15 min ([9]; water, pH 7): 9.9 µg/mL (≈ 21.1 µM)

O=C(Nc1ccc2c(c1)B(O)OC2)c1ccc(F)cc1C(F)(F)F [SCYX-6759]
cure rate of the CNS infection (T. b. brucei (TREU 667) [1]; oral 50 mg/kg twice daily (b.i.d.)): 83%
